Measured values taken from the NIST ThermoML archive (doi:10.1021/je400055v).
± gives the expanded uncertainty stated by the source.

Conditions: Liquid, Vibrating tube method

Compound: CCCCCCCCCCC [undecane]
- mass density (313.15 K, 1000 kPa): 726.6 ± 0.3 kg/m3
- mass density (313.15 K, 2001 kPa): 727.3 ± 0.3 kg/m3
- mass density (313.15 K, 3001 kPa): 728 ± 0.3 kg/m3
- mass density (313.15 K, 4000 kPa): 728.7 ± 0.3 kg/m3
- mass density (313.15 K, 5000 kPa): 729.5 ± 0.3 kg/m3
- mass density (313.15 K, 6001 kPa): 730.2 ± 0.3 kg/m3
- mass density (313.15 K, 7000 kPa): 731 ± 0.3 kg/m3
- mass density (313.15 K, 8000 kPa): 731.8 ± 0.3 kg/m3
- mass density (313.15 K, 9000 kPa): 732.6 ± 0.3 kg/m3
- mass density (313.15 K, 10000 kPa): 733.4 ± 0.3 kg/m3
- mass density (313.15 K, 11000 kPa): 734.1 ± 0.3 kg/m3
- mass density (313.15 K, 12000 kPa): 734.9 ± 0.3 kg/m3
- mass density (313.15 K, 13000 kPa): 735.7 ± 0.3 kg/m3
- mass density (313.15 K, 14001 kPa): 736.4 ± 0.3 kg/m3
- mass density (313.15 K, 15000 kPa): 737.2 ± 0.3 kg/m3
- mass density (313.15 K, 16000 kPa): 737.9 ± 0.3 kg/m3
- mass density (313.15 K, 17000 kPa): 738.7 ± 0.4 kg/m3
- mass density (313.15 K, 18000 kPa): 739.4 ± 0.4 kg/m3
- mass density (313.15 K, 19000 kPa): 740 ± 0.4 kg/m3
- mass density (313.15 K, 20000 kPa): 740.7 ± 0.4 kg/m3
- mass density (313.15 K, 21001 kPa): 741.3 ± 0.4 kg/m3
- mass density (313.15 K, 22000 kPa): 742 ± 0.4 kg/m3
- mass density (313.15 K, 23000 kPa): 742.6 ± 0.4 kg/m3
- mass density (313.15 K, 24000 kPa): 743.2 ± 0.4 kg/m3
- mass density (313.15 K, 25000 kPa): 743.7 ± 0.4 kg/m3
- mass density (323.1 K, 1000 kPa): 719 ± 0.3 kg/m3
- mass density (323.1 K, 2000 kPa): 719.8 ± 0.3 kg/m3
- mass density (323.1 K, 3000 kPa): 720.6 ± 0.3 kg/m3
- mass density (323.1 K, 4000 kPa): 721.4 ± 0.3 kg/m3
- mass density (323.1 K, 5001 kPa): 722.2 ± 0.3 kg/m3
- mass density (323.1 K, 6000 kPa): 723 ± 0.3 kg/m3
- mass density (323.1 K, 7000 kPa): 723.8 ± 0.3 kg/m3
- mass density (323.1 K, 8000 kPa): 724.6 ± 0.3 kg/m3
- mass density (323.1 K, 9000 kPa): 725.5 ± 0.3 kg/m3
- mass density (323.1 K, 10001 kPa): 726.3 ± 0.3 kg/m3
- mass density (323.1 K, 11000 kPa): 727.1 ± 0.3 kg/m3
- mass density (323.1 K, 12000 kPa): 727.9 ± 0.3 kg/m3
- mass density (323.1 K, 13000 kPa): 728.7 ± 0.3 kg/m3
- mass density (323.1 K, 14000 kPa): 729.5 ± 0.3 kg/m3
- mass density (323.1 K, 15001 kPa): 730.3 ± 0.3 kg/m3
- mass density (323.1 K, 16000 kPa): 731.1 ± 0.4 kg/m3
- mass density (323.1 K, 17000 kPa): 731.9 ± 0.4 kg/m3
- mass density (323.1 K, 18000 kPa): 732.6 ± 0.4 kg/m3
- mass density (323.1 K, 19000 kPa): 733.3 ± 0.4 kg/m3
- mass density (323.1 K, 20000 kPa): 734 ± 0.4 kg/m3
- mass density (323.1 K, 21000 kPa): 734.7 ± 0.4 kg/m3
- mass density (323.1 K, 22000 kPa): 735.4 ± 0.4 kg/m3
- mass density (323.1 K, 23000 kPa): 736 ± 0.4 kg/m3
- mass density (323.1 K, 24000 kPa): 736.7 ± 0.4 kg/m3
- mass density (323.1 K, 25000 kPa): 737.3 ± 0.4 kg/m3
- mass density (333.02 K, 1000 kPa): 711.3 ± 0.3 kg/m3
- mass density (333.02 K, 2001 kPa): 712.1 ± 0.3 kg/m3
- mass density (333.02 K, 3000 kPa): 713 ± 0.3 kg/m3
- mass density (333.02 K, 4000 kPa): 713.8 ± 0.3 kg/m3
- mass density (333.02 K, 5000 kPa): 714.7 ± 0.3 kg/m3
- mass density (333.02 K, 6000 kPa): 715.5 ± 0.3 kg/m3
- mass density (333.02 K, 7000 kPa): 716.4 ± 0.3 kg/m3
- mass density (333.02 K, 8001 kPa): 717.3 ± 0.3 kg/m3
- mass density (333.02 K, 9000 kPa): 718.1 ± 0.3 kg/m3
- mass density (333.02 K, 10000 kPa): 719 ± 0.3 kg/m3
- mass density (333.02 K, 11000 kPa): 719.9 ± 0.3 kg/m3
- mass density (333.02 K, 12000 kPa): 720.7 ± 0.3 kg/m3
- mass density (333.02 K, 13000 kPa): 721.5 ± 0.3 kg/m3
- mass density (333.02 K, 14000 kPa): 722.4 ± 0.3 kg/m3
- mass density (333.02 K, 15000 kPa): 723.2 ± 0.4 kg/m3
- mass density (333.02 K, 16000 kPa): 724 ± 0.4 kg/m3
- mass density (333.02 K, 17000 kPa): 724.8 ± 0.4 kg/m3
- mass density (333.02 K, 18000 kPa): 725.6 ± 0.4 kg/m3
- mass density (333.02 K, 19000 kPa): 726.3 ± 0.4 kg/m3
- mass density (333.02 K, 20000 kPa): 727.1 ± 0.4 kg/m3
- mass density (333.02 K, 21000 kPa): 727.8 ± 0.4 kg/m3
- mass density (333.02 K, 22000 kPa): 728.5 ± 0.4 kg/m3
- mass density (333.02 K, 23000 kPa): 729.2 ± 0.4 kg/m3
- mass density (333.02 K, 24000 kPa): 729.9 ± 0.4 kg/m3
- mass density (333.02 K, 25000 kPa): 730.5 ± 0.4 kg/m3
- mass density (342.09 K, 1000 kPa): 703.9 ± 0.3 kg/m3
- mass density (342.09 K, 2000 kPa): 704.8 ± 0.3 kg/m3
- mass density (342.09 K, 3001 kPa): 705.8 ± 0.3 kg/m3
- mass density (342.09 K, 4000 kPa): 706.7 ± 0.3 kg/m3
- mass density (342.09 K, 5000 kPa): 707.6 ± 0.3 kg/m3
- mass density (342.09 K, 6000 kPa): 708.5 ± 0.3 kg/m3
- mass density (342.09 K, 7000 kPa): 709.4 ± 0.3 kg/m3
- mass density (342.09 K, 8000 kPa): 710.4 ± 0.3 kg/m3
- mass density (342.09 K, 9000 kPa): 711.2 ± 0.3 kg/m3
- mass density (342.09 K, 10000 kPa): 712.2 ± 0.3 kg/m3
- mass density (342.09 K, 11000 kPa): 713.1 ± 0.3 kg/m3
- mass density (342.09 K, 12000 kPa): 714 ± 0.3 kg/m3
- mass density (342.09 K, 13000 kPa): 714.8 ± 0.3 kg/m3
- mass density (342.09 K, 14000 kPa): 715.7 ± 0.3 kg/m3
- mass density (342.09 K, 15000 kPa): 716.6 ± 0.4 kg/m3
- mass density (342.09 K, 16000 kPa): 717.4 ± 0.4 kg/m3
- mass density (342.09 K, 17000 kPa): 718.2 ± 0.4 kg/m3
- mass density (342.09 K, 18000 kPa): 719.1 ± 0.4 kg/m3
- mass density (342.09 K, 19000 kPa): 719.9 ± 0.4 kg/m3
- mass density (342.09 K, 20000 kPa): 720.6 ± 0.4 kg/m3
- mass density (342.09 K, 21000 kPa): 721.4 ± 0.4 kg/m3
- mass density (342.09 K, 22000 kPa): 722.2 ± 0.4 kg/m3
- mass density (342.09 K, 23000 kPa): 722.9 ± 0.4 kg/m3
- mass density (342.09 K, 23999 kPa): 723.6 ± 0.4 kg/m3
- mass density (342.09 K, 25000 kPa): 724.3 ± 0.4 kg/m3
- mass density (352.93 K, 1000 kPa): 696.5 ± 0.3 kg/m3
- mass density (352.93 K, 2000 kPa): 697.4 ± 0.3 kg/m3
- mass density (352.93 K, 3001 kPa): 698.4 ± 0.3 kg/m3
- mass density (352.93 K, 4000 kPa): 699.4 ± 0.3 kg/m3
- mass density (352.93 K, 5000 kPa): 700.4 ± 0.3 kg/m3
- mass density (352.93 K, 6000 kPa): 701.4 ± 0.3 kg/m3
- mass density (352.93 K, 7001 kPa): 702.3 ± 0.3 kg/m3
- mass density (352.93 K, 8000 kPa): 703.3 ± 0.3 kg/m3
- mass density (352.93 K, 9000 kPa): 704.3 ± 0.3 kg/m3
- mass density (352.93 K, 10001 kPa): 705.2 ± 0.3 kg/m3
- mass density (352.93 K, 11000 kPa): 706.2 ± 0.3 kg/m3
- mass density (352.93 K, 12000 kPa): 707.1 ± 0.3 kg/m3
- mass density (352.93 K, 13000 kPa): 708 ± 0.3 kg/m3
- mass density (352.93 K, 14000 kPa): 709 ± 0.4 kg/m3
- mass density (352.93 K, 15000 kPa): 709.8 ± 0.4 kg/m3
- mass density (352.93 K, 16000 kPa): 710.7 ± 0.4 kg/m3
- mass density (352.93 K, 17000 kPa): 711.6 ± 0.4 kg/m3
- mass density (352.93 K, 18000 kPa): 712.5 ± 0.4 kg/m3
- mass density (352.93 K, 19000 kPa): 713.3 ± 0.4 kg/m3
- mass density (352.93 K, 20000 kPa): 714.1 ± 0.4 kg/m3
- mass density (352.93 K, 21000 kPa): 715 ± 0.4 kg/m3
- mass density (352.93 K, 22000 kPa): 715.7 ± 0.4 kg/m3
- mass density (352.93 K, 23000 kPa): 716.5 ± 0.4 kg/m3
- mass density (352.93 K, 24000 kPa): 717.3 ± 0.4 kg/m3
- mass density (352.93 K, 25000 kPa): 718 ± 0.4 kg/m3
- mass density (362.91 K, 1000 kPa): 688.8 ± 0.3 kg/m3
- mass density (362.91 K, 2001 kPa): 689.9 ± 0.3 kg/m3
- mass density (362.91 K, 3000 kPa): 691 ± 0.3 kg/m3
- mass density (362.91 K, 4000 kPa): 692 ± 0.3 kg/m3
- mass density (362.91 K, 5001 kPa): 693.1 ± 0.3 kg/m3
- mass density (362.91 K, 6001 kPa): 694.1 ± 0.3 kg/m3
- mass density (362.91 K, 7001 kPa): 695.2 ± 0.3 kg/m3
- mass density (362.91 K, 8000 kPa): 696.2 ± 0.3 kg/m3
- mass density (362.91 K, 9000 kPa): 697.2 ± 0.3 kg/m3
- mass density (362.91 K, 10000 kPa): 698.2 ± 0.3 kg/m3
- mass density (362.91 K, 11000 kPa): 699.2 ± 0.3 kg/m3
- mass density (362.91 K, 12001 kPa): 700.2 ± 0.3 kg/m3
- mass density (362.91 K, 13000 kPa): 701.1 ± 0.3 kg/m3
- mass density (362.91 K, 14001 kPa): 702.1 ± 0.4 kg/m3
- mass density (362.91 K, 15001 kPa): 703 ± 0.4 kg/m3
- mass density (362.91 K, 16001 kPa): 704 ± 0.4 kg/m3
- mass density (362.91 K, 17001 kPa): 704.9 ± 0.4 kg/m3
- mass density (362.91 K, 18000 kPa): 705.8 ± 0.4 kg/m3
- mass density (362.91 K, 19001 kPa): 706.6 ± 0.4 kg/m3
- mass density (362.91 K, 20000 kPa): 707.5 ± 0.4 kg/m3
- mass density (362.91 K, 21000 kPa): 708.4 ± 0.4 kg/m3
- mass density (362.91 K, 22000 kPa): 709.2 ± 0.4 kg/m3
- mass density (362.91 K, 23000 kPa): 710 ± 0.4 kg/m3
- mass density (362.91 K, 24000 kPa): 710.9 ± 0.4 kg/m3
- mass density (362.91 K, 25000 kPa): 711.6 ± 0.4 kg/m3
